Assay results reported in PMC10401705, “Imaging Saturation Transfer Difference (STD) NMR: Affinity and Specificity of Protein–Ligand Interactions from a Single NMR Sample” (Journal of the American Chemical Society, 2023).

Tests used:
[1] = target: T1, wheat germ agglutinin (WGA); assay: imaging STD NMR, initial slopes (STD-AF0), Langmuir fit; format: binding, Triticum aestivum
T1 construct: gene WGA1

[2] = target: T2, bovine serum albumin (BSA) (Bos taurus, UniProt P02769); assay: as above; format: binding
T2 construct: gene ALB
T2 sequence (P02769 25-607): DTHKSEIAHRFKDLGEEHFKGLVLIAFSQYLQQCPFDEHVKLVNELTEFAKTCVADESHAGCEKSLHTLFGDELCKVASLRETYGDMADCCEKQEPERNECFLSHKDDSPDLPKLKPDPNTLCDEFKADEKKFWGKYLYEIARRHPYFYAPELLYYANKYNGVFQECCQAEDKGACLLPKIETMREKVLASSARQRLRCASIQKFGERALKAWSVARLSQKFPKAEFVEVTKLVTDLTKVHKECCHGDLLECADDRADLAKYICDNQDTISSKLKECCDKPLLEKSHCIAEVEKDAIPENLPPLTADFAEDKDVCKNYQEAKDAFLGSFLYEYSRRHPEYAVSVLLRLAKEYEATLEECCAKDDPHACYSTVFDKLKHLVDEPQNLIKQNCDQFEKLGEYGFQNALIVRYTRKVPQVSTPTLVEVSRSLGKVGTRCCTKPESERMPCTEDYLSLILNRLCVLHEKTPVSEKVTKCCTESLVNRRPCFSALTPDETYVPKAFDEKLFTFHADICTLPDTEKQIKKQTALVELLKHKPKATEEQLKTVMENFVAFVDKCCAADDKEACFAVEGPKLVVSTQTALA

Kd [1] [µM] | Kd [2] [µM] | SMILES
2240 ± 180 | – | CC(=O)N[C@H]1C(O)O[C@H](CO)[C@@H](O)[C@@H]1O (some centres unmarked) [GlcNAc]
– | 231 ± 50 | N[C@@H](Cc1c[nH]c2ccccc12)C(=O)O [tryptophan]
